Test results published in PubChem BioAssay (NCI).
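Tested at 5 concentrations; 48 h exposure; 96-well plates; endpoints linearly interpolated, else capped at highest concentration. GI50 marks 50% less growth. Definition used: TGI = concentration required for complete inhibition of growth.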

Legend:
Experiment in all cases: inhibition of tumour cell growth, NCI panel, 48 h
SR leukemia = system: SR leukemia
K-562 leukemia = system: K-562 leukemia
LOX IMVI melanoma = system: LOX IMVI melanoma
RPMI-8226 leukemia = system: RPMI-8226 leukemia
HL-60(TB) leukemia = system: HL-60(TB) leukemia
CCRF-CEM leukemia = system: CCRF-CEM leukemia
NCI/ADR-RES ovarian = system: NCI/ADR-RES ovarian
MOLT-4 leukemia = system: MOLT-4 leukemia
HT29 colon = system: HT29 colon
T-47D breast = system: T-47D breast
EKVX NSCLC = system: EKVX NSCLC
DU-145 prostate = system: DU-145 prostate
A498 renal = system: A498 renal
SF-295 CNS = system: SF-295 CNS
BT-549 breast = system: BT-549 breast
A549 NSCLC = system: A549 NSCLC
KM12 colon = system: KM12 colon
CAKI-1 renal = system: CAKI-1 renal
M14 melanoma = system: M14 melanoma
U251 CNS = system: U251 CNS
ACHN renal = system: ACHN renal
MDA-MB-435 = system: MDA-MB-435
HCT-116 colon = system: HCT-116 colon
NCI-H522 lung = system: NCI-H522 lung
MDA-MB-231 breast = system: MDA-MB-231 breast
OVCAR-8 ovarian = system: OVCAR-8 ovarian
SW-620 colon = system: SW-620 colon
SK-MEL-28 melanoma = system: SK-MEL-28 melanoma
OVCAR-3 ovarian = system: OVCAR-3 ovarian
SF-539 CNS = system: SF-539 CNS
MCF7 breast = system: MCF7 breast
SK-MEL-2 melanoma = system: SK-MEL-2 melanoma
NCI-H23 lung = system: NCI-H23 lung
OVCAR-5 ovarian = system: OVCAR-5 ovarian
HCT-15 colon = system: HCT-15 colon
SNB-19 CNS = system: SNB-19 CNS
SF-268 CNS = system: SF-268 CNS
MALME-3M melanoma = system: MALME-3M melanoma
UACC-62 melanoma = system: UACC-62 melanoma
COLO 205 colon = system: COLO 205 colon
NCI-H226 lung = system: NCI-H226 lung
PC-3 prostate = system: PC-3 prostate
NCI-H460 lung = system: NCI-H460 lung
SN12C renal = system: SN12C renal
OVCAR-4 ovarian = system: OVCAR-4 ovarian
IGROV1 ovarian = system: IGROV1 ovarian
UO-31 renal = system: UO-31 renal
HCC-2998 colon = system: HCC-2998 colon
HS 578T breast = system: HS 578T breast
TK-10 renal = system: TK-10 renal
UACC-257 melanoma = system: UACC-257 melanoma
786-0 renal = system: 786-0 renal
HOP-92 NSCLC = system: HOP-92 NSCLC
SK-OV-3 ovarian = system: SK-OV-3 ovarian
SNB-75 CNS = system: SNB-75 CNS
HOP-62 NSCLC = system: HOP-62 NSCLC
SK-MEL-5 melanoma = system: SK-MEL-5 melanoma

C=C(C=O)[C@@H]1CC[C@]2(C)[C@H](C(=O)C=C3[C@H]4C[C@](C)(C(=O)OC)CC[C@]4(C)CC[C@]32C)[C@@]1(C)CCC#N
GI50 (SR leukemia): 1.02 µM | TGI (SR leukemia): > 100 µM | GI50 (K-562 leukemia): 1.81 µM | TGI (K-562 leukemia): > 100 µM | GI50 (LOX IMVI melanoma): 1.34 µM | TGI (LOX IMVI melanoma): 2.7 µM | GI50 (RPMI-8226 leukemia): 0.942 µM | TGI (RPMI-8226 leukemia): 5.04 µM | GI50 (HL-60(TB) leukemia): 1.72 µM | TGI (HL-60(TB) leukemia): 5.93 µM | GI50 (CCRF-CEM leukemia): 0.483 µM | TGI (CCRF-CEM leukemia): > 100 µM | GI50 (NCI/ADR-RES ovarian): 1.88 µM | TGI (NCI/ADR-RES ovarian): 5.92 µM | GI50 (MOLT-4 leukemia): 0.985 µM | TGI (MOLT-4 leukemia): > 100 µM | GI50 (HT29 colon): 1.12 µM | TGI (HT29 colon): 2.87 µM | GI50 (T-47D breast): 0.899 µM | TGI (T-47D breast): > 100 µM

CC(Nc1c(C#N)cnc2ccc(-c3cncc(-c4n[nH]c(=O)o4)c3)cc12)c1ccccc1 (centres undefined)
GI50 (EKVX NSCLC): 2.46 µM | TGI (EKVX NSCLC): 8.59 µM | GI50 (DU-145 prostate): 2.98 µM | TGI (DU-145 prostate): 15.6 µM | GI50 (A498 renal): 1.77 µM | TGI (A498 renal): 5.95 µM | GI50 (SF-295 CNS): 2.64 µM | TGI (SF-295 CNS): 10.3 µM | GI50 (SR leukemia): 2.79 µM | TGI (SR leukemia): 46.8 µM | GI50 (K-562 leukemia): 4.42 µM | TGI (K-562 leukemia): > 100 µM | GI50 (BT-549 breast): 1.35 µM | TGI (BT-549 breast): 5.48 µM | GI50 (A549 NSCLC): 3.64 µM | TGI (A549 NSCLC): 29.2 µM | GI50 (KM12 colon): 3.65 µM | TGI (KM12 colon): 17.2 µM | GI50 (CAKI-1 renal): 3.69 µM | TGI (CAKI-1 renal): 34.5 µM | GI50 (M14 melanoma): 3.87 µM | TGI (M14 melanoma): 33.4 µM | GI50 (U251 CNS): 2.36 µM | TGI (U251 CNS): 14.4 µM | GI50 (ACHN renal): 3.57 µM | TGI (ACHN renal): 13.3 µM | GI50 (MDA-MB-435): 3.59 µM | TGI (MDA-MB-435): 29.5 µM | GI50 (HCT-116 colon): 2.65 µM | TGI (HCT-116 colon): 8.75 µM | GI50 (NCI-H522 lung): 3.31 µM | TGI (NCI-H522 lung): 16.2 µM | GI50 (MDA-MB-231 breast): 2.15 µM | TGI (MDA-MB-231 breast): 9.65 µM | GI50 (OVCAR-8 ovarian): 3.63 µM | TGI (OVCAR-8 ovarian): 32.9 µM | GI50 (SW-620 colon): 3.39 µM | TGI (SW-620 colon): 18.9 µM | GI50 (SK-MEL-28 melanoma): 3.4 µM | TGI (SK-MEL-28 melanoma): 14.7 µM | GI50 (OVCAR-3 ovarian): 1.92 µM | TGI (OVCAR-3 ovarian): 5.47 µM | GI50 (SF-539 CNS): 2.53 µM | TGI (SF-539 CNS): 10.3 µM | GI50 (MCF7 breast): 2.64 µM | TGI (MCF7 breast): 15.8 µM | GI50 (SK-MEL-2 melanoma): 2.24 µM | TGI (SK-MEL-2 melanoma): 6.66 µM | GI50 (LOX IMVI melanoma): 1.94 µM | TGI (LOX IMVI melanoma): 8.44 µM | GI50 (NCI-H23 lung): 3.12 µM | TGI (NCI-H23 lung): 14.5 µM | GI50 (RPMI-8226 leukemia): 2.52 µM | TGI (RPMI-8226 leukemia): > 100 µM | GI50 (OVCAR-5 ovarian): 3.6 µM | TGI (OVCAR-5 ovarian): 22.9 µM | GI50 (HL-60(TB) leukemia): 8.19 µM | TGI (HL-60(TB) leukemia): 72.5 µM | GI50 (HCT-15 colon): 3.06 µM | TGI (HCT-15 colon): 13.2 µM | GI50 (SNB-19 CNS): 2.77 µM | TGI (SNB-19 CNS): 14.6 µM | GI50 (SF-268 CNS): 2.62 µM | TGI (SF-268 CNS): 9.88 µM | GI50 (MALME-3M melanoma): 2.17 µM | TGI (MALME-3M melanoma): 9.36 µM | GI50 (CCRF-CEM leukemia): 3.7 µM | TGI (CCRF-CEM leukemia): > 100 µM | GI50 (NCI/ADR-RES ovarian): 20.2 µM | TGI (NCI/ADR-RES ovarian): 81.4 µM | GI50 (UACC-62 melanoma): 1.96 µM | TGI (UACC-62 melanoma): 4.87 µM | GI50 (MOLT-4 leukemia): 3.02 µM | TGI (MOLT-4 leukemia): 76 µM | GI50 (COLO 205 colon): 2.85 µM | TGI (COLO 205 colon): 14.8 µM | GI50 (NCI-H226 lung): 2.56 µM | TGI (NCI-H226 lung): 13.8 µM | GI50 (PC-3 prostate): 3.25 µM | TGI (PC-3 prostate): > 100 µM | GI50 (NCI-H460 lung): 3.2 µM | TGI (NCI-H460 lung): 14.9 µM | GI50 (HT29 colon): 3.66 µM | TGI (HT29 colon): 31.1 µM | GI50 (SN12C renal): 2.73 µM | TGI (SN12C renal): 13.7 µM | GI50 (OVCAR-4 ovarian): 2.84 µM | TGI (OVCAR-4 ovarian): 24.3 µM | GI50 (IGROV1 ovarian): 1.55 µM | TGI (IGROV1 ovarian): 4.77 µM | GI50 (T-47D breast): 2.36 µM | TGI (T-47D breast): > 100 µM | GI50 (UO-31 renal): 1.77 µM | TGI (UO-31 renal): 8.79 µM | GI50 (HCC-2998 colon): 3.48 µM | TGI (HCC-2998 colon): 14.1 µM | GI50 (HS 578T breast): 1.9 µM | TGI (HS 578T breast): 5.47 µM | GI50 (TK-10 renal): 3.83 µM | TGI (TK-10 renal): 44.6 µM | GI50 (UACC-257 melanoma): 4.48 µM | TGI (UACC-257 melanoma): 22.5 µM | GI50 (786-0 renal): 2.44 µM | TGI (786-0 renal): 24.2 µM | GI50 (HOP-92 NSCLC): 2 µM | TGI (HOP-92 NSCLC): 7.27 µM | GI50 (SK-OV-3 ovarian): 4.51 µM | TGI (SK-OV-3 ovarian): 28.3 µM | GI50 (SNB-75 CNS): 2.15 µM | TGI (SNB-75 CNS): 7.76 µM | GI50 (HOP-62 NSCLC): 3.51 µM | TGI (HOP-62 NSCLC): 24.7 µM | GI50 (SK-MEL-5 melanoma): 1.68 µM | TGI (SK-MEL-5 melanoma): 3.07 µM
